What was measured:
Assay type in all cases: in vivo
[1] = test system: Puccinia recondita; test: Brown Rust (PUCCRT), protectant spray test on wheat seedlings; details: wheat (cultivar Monon), sprayed to run off at 100 ppm, inoculated after 24 hours
[2] = test system: Phytophthora infestans; details: tomatoes (cultivar Rutgers), sprayed to run off at 100 ppm, inoculated after 24 hours
[3] = test system: Erysiphe graminis; test: Powdery Mildew of Wheat (ERYSGT), protectant spray test on wheat seedlings; details: wheat (cultivar Monon), sprayed to run off at 100 ppm, inoculated after 24 hours
[4] = test system: Leptosphaeria nodorum; test: Glume Blotch of Wheat (LEPTNO), protectant spray test on wheat seedlings; details: wheat (cultivar Monon), sprayed to run off at 100 ppm, inoculated after 24 hours

CNC(=O)C(=NOC)c1ccccc1COc1ncc(C(OC(C)=O)c2ccccc2Cl)cc1Cl (stereo not shown) [Example 74]
PUCCRT control of plant disease [1]: ++ (++ = 75-100% control of plant disease) | PHYTIN control of plant disease [2]: ++ (++ = 75-100% control of plant disease) | ERYSGT control of plant disease [3]: ++ (++ = 75-100% control of plant disease) | LEPTNO control of plant disease [4]: ++ (++ = 75-100% control of plant disease)

CCCOC(c1ccccc1)c1cnc(OCc2ccccc2C(=NOC)C(=O)NC)c(Cl)c1 (stereo not shown) [Example 120]
PUCCRT control of plant disease [1]: − (− = 0-24% control of plant disease) | PHYTIN control of plant disease [2]: + (+ = 25-74% control of plant disease) | ERYSGT control of plant disease [3]: ++ (++ = 75-100% control of plant disease) | LEPTNO control of plant disease [4]: + (+ = 25-74% control of plant disease)

CCCC(=O)OC(c1ccc(F)cc1)c1cnc(OCc2ccccc2C(=NOC)C(=O)NC)c(Cl)c1 (racemic) [Example 50]
PUCCRT control of plant disease [1]: ++ (++ = 75-100% control of plant disease) | PHYTIN control of plant disease [2]: ++ (++ = 75-100% control of plant disease) | ERYSGT control of plant disease [3]: ++ (++ = 75-100% control of plant disease) | LEPTNO control of plant disease [4]: ++ (++ = 75-100% control of plant disease)

CNC(=O)C(=NOC)c1ccccc1COc1ncc(C(OC(C)=O)c2ccccc2)cc1C (stereo not shown) [Example 98]
PUCCRT control of plant disease [1]: ++ (++ = 75-100% control of plant disease) | PHYTIN control of plant disease [2]: ++ (++ = 75-100% control of plant disease) | ERYSGT control of plant disease [3]: ++ (++ = 75-100% control of plant disease) | LEPTNO control of plant disease [4]: ++ (++ = 75-100% control of plant disease)

CNC(=O)C(=NOC)c1ccccc1COc1ncc(C(OC(C)(C)C)c2ccccc2)cc1Cl (stereo not shown) [Example 119]
PUCCRT control of plant disease [1]: ++ (++ = 75-100% control of plant disease) | PHYTIN control of plant disease [2]: ++ (++ = 75-100% control of plant disease) | ERYSGT control of plant disease [3]: ++ (++ = 75-100% control of plant disease) | LEPTNO control of plant disease [4]: ++ (++ = 75-100% control of plant disease)

CNC(=O)C(=NOC)c1ccccc1COc1ncc(C(OC(=O)C(C)C)c2ccccc2)cc1Cl (racemic) [Example 32]
PUCCRT control of plant disease [1]: ++ (++ = 75-100% control of plant disease) | PHYTIN control of plant disease [2]: − (− = 0-24% control of plant disease) | ERYSGT control of plant disease [3]: − (− = 0-24% control of plant disease) | LEPTNO control of plant disease [4]: − (− = 0-24% control of plant disease)

CNC(=O)C(=NOC)c1ccccc1COc1ncc(C(C)(OC(C)=O)c2ccccc2)cc1Cl (racemic) [Example 53]
PUCCRT control of plant disease [1]: ++ (++ = 75-100% control of plant disease) | PHYTIN control of plant disease [2]: ++ (++ = 75-100% control of plant disease) | ERYSGT control of plant disease [3]: ++ (++ = 75-100% control of plant disease) | LEPTNO control of plant disease [4]: ++ (++ = 75-100% control of plant disease)

CNC(=O)C(=NOC)c1ccccc1COc1ncc(C(OCc2ccc(OC)cc2)c2ccccc2)cc1Cl (stereo not shown) [Example 101]
PUCCRT control of plant disease [1]: ++ (++ = 75-100% control of plant disease) | PHYTIN control of plant disease [2]: ++ (++ = 75-100% control of plant disease) | ERYSGT control of plant disease [3]: ++ (++ = 75-100% control of plant disease) | LEPTNO control of plant disease [4]: + (+ = 25-74% control of plant disease)

CNC(=O)C(=NOC)c1ccccc1COc1ncc(C(OC(C)=O)c2cccc(F)c2)cc1Cl (stereo not shown) [Example 96]
PUCCRT control of plant disease [1]: ++ (++ = 75-100% control of plant disease) | PHYTIN control of plant disease [2]: ++ (++ = 75-100% control of plant disease) | ERYSGT control of plant disease [3]: ++ (++ = 75-100% control of plant disease) | LEPTNO control of plant disease [4]: ++ (++ = 75-100% control of plant disease)

CNC(=O)C(=NOC)c1ccccc1COc1ncc(C(OC(C)=O)c2ccsc2)cc1Cl (stereo not shown) [Example 121]
PHYTIN control of plant disease [2]: ++ (++ = 75-100% control of plant disease) | ERYSGT control of plant disease [3]: ++ (++ = 75-100% control of plant disease)

CNC(=O)C(=NOC)c1ccccc1COc1ncc(C(C)OCc2ccc(C)cc2)cc1Cl (racemic) [Example 44]
PUCCRT control of plant disease [1]: ++ (++ = 75-100% control of plant disease) | PHYTIN control of plant disease [2]: ++ (++ = 75-100% control of plant disease) | ERYSGT control of plant disease [3]: ++ (++ = 75-100% control of plant disease) | LEPTNO control of plant disease [4]: ++ (++ = 75-100% control of plant disease)

CNC(=O)C(=NOC)c1ccccc1COc1ncc(C(C)OCc2ccccc2OC)cc1Cl (stereo not shown) [Example 97]
PUCCRT control of plant disease [1]: ++ (++ = 75-100% control of plant disease) | PHYTIN control of plant disease [2]: − (− = 0-24% control of plant disease) | ERYSGT control of plant disease [3]: ++ (++ = 75-100% control of plant disease) | LEPTNO control of plant disease [4]: ++ (++ = 75-100% control of plant disease)

CNC(=O)C(=NOC)c1ccccc1COc1ncc(C(OC(C)=O)c2ccccn2)cc1Cl (stereo not shown) [Example 108]
PUCCRT control of plant disease [1]: ++ (++ = 75-100% control of plant disease) | PHYTIN control of plant disease [2]: ++ (++ = 75-100% control of plant disease) | ERYSGT control of plant disease [3]: ++ (++ = 75-100% control of plant disease) | LEPTNO control of plant disease [4]: ++ (++ = 75-100% control of plant disease)

CNC(=O)C(=NOC)c1ccccc1COc1ncc(C(OC(C)=O)c2ccccc2)cc1Cl (stereo not shown) [Example 76]
PUCCRT control of plant disease [1]: ++ (++ = 75-100% control of plant disease) | PHYTIN control of plant disease [2]: ++ (++ = 75-100% control of plant disease) | ERYSGT control of plant disease [3]: ++ (++ = 75-100% control of plant disease) | LEPTNO control of plant disease [4]: ++ (++ = 75-100% control of plant disease)

CNC(=O)C(=NOC)c1ccccc1COc1ncc(C(OC(C)=O)c2ccccc2F)cc1Cl (stereo not shown) [Example 82]
PUCCRT control of plant disease [1]: ++ (++ = 75-100% control of plant disease) | PHYTIN control of plant disease [2]: ++ (++ = 75-100% control of plant disease) | ERYSGT control of plant disease [3]: ++ (++ = 75-100% control of plant disease) | LEPTNO control of plant disease [4]: ++ (++ = 75-100% control of plant disease)

CNC(=O)C(=NOC)c1ccccc1COc1ncc(C(OC(C)=O)c2ccc3ccccc3c2)cc1Cl (stereo not shown) [Example 83]
PUCCRT control of plant disease [1]: ++ (++ = 75-100% control of plant disease) | PHYTIN control of plant disease [2]: ++ (++ = 75-100% control of plant disease) | ERYSGT control of plant disease [3]: ++ (++ = 75-100% control of plant disease) | LEPTNO control of plant disease [4]: ++ (++ = 75-100% control of plant disease)

CNC(=O)C(=NOC)c1ccccc1COc1ncc(C(O)c2cccc(Cl)c2)cc1Cl (stereo not shown) [Example 73]
PUCCRT control of plant disease [1]: ++ (++ = 75-100% control of plant disease) | PHYTIN control of plant disease [2]: ++ (++ = 75-100% control of plant disease) | ERYSGT control of plant disease [3]: ++ (++ = 75-100% control of plant disease) | LEPTNO control of plant disease [4]: ++ (++ = 75-100% control of plant disease)

CCC(O)c1cnc(OCc2ccccc2C(=NOC)C(=O)NC)c(Cl)c1 (stereo not shown) [Example 90]
PUCCRT control of plant disease [1]: ++ (++ = 75-100% control of plant disease) | PHYTIN control of plant disease [2]: ++ (++ = 75-100% control of plant disease) | ERYSGT control of plant disease [3]: ++ (++ = 75-100% control of plant disease) | LEPTNO control of plant disease [4]: + (+ = 25-74% control of plant disease)

CNC(=O)C(=NOC)c1ccccc1COc1ncc(C(COC(C)=O)(OC(C)=O)c2ccccc2)cc1Cl (stereo not shown) [Example 107]
PUCCRT control of plant disease [1]: ++ (++ = 75-100% control of plant disease) | PHYTIN control of plant disease [2]: ++ (++ = 75-100% control of plant disease) | ERYSGT control of plant disease [3]: ++ (++ = 75-100% control of plant disease) | LEPTNO control of plant disease [4]: ++ (++ = 75-100% control of plant disease)

CNC(=O)C(=NOC)c1ccccc1COc1ncc(C(OC(=O)N(C)C)c2ccccc2)cc1Cl (racemic) [Example 45]
PUCCRT control of plant disease [1]: ++ (++ = 75-100% control of plant disease) | PHYTIN control of plant disease [2]: ++ (++ = 75-100% control of plant disease) | ERYSGT control of plant disease [3]: ++ (++ = 75-100% control of plant disease) | LEPTNO control of plant disease [4]: ++ (++ = 75-100% control of plant disease)

CNC(=O)C(=NOC)c1ccccc1COc1ncc(C(C)(C)O)cc1Cl [Example 34]
PUCCRT control of plant disease [1]: ++ (++ = 75-100% control of plant disease) | PHYTIN control of plant disease [2]: + (+ = 25-74% control of plant disease) | ERYSGT control of plant disease [3]: − (− = 0-24% control of plant disease) | LEPTNO control of plant disease [4]: + (+ = 25-74% control of plant disease)

CNC(=O)C(=NOC)c1ccccc1COc1ncc(C(OC(C)=O)c2ccc(OC)c(OC)c2)cc1Cl (stereo not shown) [Example 116]
PUCCRT control of plant disease [1]: ++ (++ = 75-100% control of plant disease) | PHYTIN control of plant disease [2]: + (+ = 25-74% control of plant disease) | ERYSGT control of plant disease [3]: ++ (++ = 75-100% control of plant disease) | LEPTNO control of plant disease [4]: ++ (++ = 75-100% control of plant disease)

CNC(=O)C(=NOC)c1ccccc1COc1ncc(C2(c3ccccc3)COC(=S)O2)cc1Cl (stereo not shown) [Example 125]
PUCCRT control of plant disease [1]: ++ (++ = 75-100% control of plant disease) | PHYTIN control of plant disease [2]: ++ (++ = 75-100% control of plant disease) | ERYSGT control of plant disease [3]: ++ (++ = 75-100% control of plant disease) | LEPTNO control of plant disease [4]: ++ (++ = 75-100% control of plant disease)

CNC(=O)C(=NOC)c1ccccc1COc1ncc(C(O)c2ccc(Oc3ccccc3)cc2)cc1Cl (stereo not shown) [Example 100]
PUCCRT control of plant disease [1]: ++ (++ = 75-100% control of plant disease) | PHYTIN control of plant disease [2]: ++ (++ = 75-100% control of plant disease) | ERYSGT control of plant disease [3]: ++ (++ = 75-100% control of plant disease) | LEPTNO control of plant disease [4]: ++ (++ = 75-100% control of plant disease)

CNC(=O)C(=NOC)c1ccccc1COc1ncc(C(OC(C)=O)c2cccc(C)c2)cc1Cl (stereo not shown) [Example 112]
PUCCRT control of plant disease [1]: ++ (++ = 75-100% control of plant disease) | PHYTIN control of plant disease [2]: ++ (++ = 75-100% control of plant disease) | ERYSGT control of plant disease [3]: ++ (++ = 75-100% control of plant disease) | LEPTNO control of plant disease [4]: ++ (++ = 75-100% control of plant disease)

CCOC(C)(c1ccccc1)c1cnc(OCc2ccccc2C(=NOC)C(=O)NC)c(Cl)c1 (stereo not shown) [Example 122]
PHYTIN control of plant disease [2]: − (− = 0-24% control of plant disease) | ERYSGT control of plant disease [3]: ++ (++ = 75-100% control of plant disease)

Source: US6436963B1 (priority 1998, dated 2002)
